From the supplement of paper PMC5321775
± gives the standard deviation of the averaged measurements or the uncertainty stated by the source.

What was measured:
[1] = system: Caenorhabditis briggsae AF16; assay: mean adult lifespan of treated plate (days); higher = longer lifespan; details: exposure: chronic from day 1 of adulthood
Description: (§1)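 Dose-response lifespan assays in three C. briggsae strains (AF16, HK104, JU1348), run per plate (35-40 animals) on NGM with live OP50-1 and 51 uM FUdR at 20 C. Compound was added to the plate surface and worms were exposed from the first day of adulthood.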

[2] = system: Caenorhabditis briggsae HK104; assay: as above; details: exposure: chronic from day 1 of adulthood
Description: as §1

[3] = system: Caenorhabditis briggsae JU1348; assay: as above; details: exposure: chronic from day 1 of adulthood
Description: as §1

[4] = system: Caenorhabditis briggsae AF16; assay: mean adult lifespan of treated cohort (days); higher = longer lifespan; details: exposure: chronic from day 1 of adulthood, single dose per compound (concentration not stated in sheet)
Description: (§2)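 Caenorhabditis lifespan assay (CITP). Synchronised hermaphrodites were moved on the first day of adulthood onto 35 mm NGM plates with live E. coli OP50-1 and 51 uM FUdR, with the compound spread on the plate. Worms were kept at 20 C and scored for survival.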

[5] = system: Caenorhabditis briggsae HK104; assay: as above; details: exposure: chronic from day 1 of adulthood, single dose per compound (concentration not stated in sheet)
Description: as §2

[6] = system: Caenorhabditis briggsae JU1348; assay: as above; details: exposure: chronic from day 1 of adulthood, single dose per compound (concentration not stated in sheet)
Description: as §2

[7] = system: Caenorhabditis elegans JU775; assay: as above; details: exposure: chronic from day 1 of adulthood, single dose per compound (concentration not stated in sheet)
Description: as §2

[8] = system: Caenorhabditis elegans MY16; assay: as above; details: exposure: chronic from day 1 of adulthood, single dose per compound (concentration not stated in sheet)
Description: as §2

[9] = system: Caenorhabditis elegans N2; assay: as above; details: exposure: chronic from day 1 of adulthood, single dose per compound (concentration not stated in sheet)
Description: as §2

[10] = system: Caenorhabditis briggsae AF16; assay: Kaplan-Meier median lifespan of treated plate (days); higher = longer lifespan; details: exposure: chronic from day 1 of adulthood
Description: as §1

[11] = system: Caenorhabditis briggsae HK104; assay: as above; details: exposure: chronic from day 1 of adulthood
Description: as §1

[12] = system: Caenorhabditis briggsae JU1348; assay: as above; details: exposure: chronic from day 1 of adulthood
Description: as §1

[13] = system: Caenorhabditis briggsae AF16; assay: Kaplan-Meier median lifespan of treated cohort (days); higher = longer lifespan; details: exposure: chronic from day 1 of adulthood, single dose per compound (concentration not stated in sheet)
Description: as §2

[14] = system: Caenorhabditis briggsae HK104; assay: as above; details: exposure: chronic from day 1 of adulthood, single dose per compound (concentration not stated in sheet)
Description: as §2

[15] = system: Caenorhabditis briggsae JU1348; assay: as above; details: exposure: chronic from day 1 of adulthood, single dose per compound (concentration not stated in sheet)
Description: as §2

[16] = system: Caenorhabditis elegans JU775; assay: as above; details: exposure: chronic from day 1 of adulthood, single dose per compound (concentration not stated in sheet)
Description: as §2

[17] = system: Caenorhabditis elegans MY16; assay: as above; details: exposure: chronic from day 1 of adulthood, single dose per compound (concentration not stated in sheet)
Description: as §2

[18] = system: Caenorhabditis elegans N2; assay: as above; details: exposure: chronic from day 1 of adulthood, single dose per compound (concentration not stated in sheet)
Description: as §2

In the case of `CCCOC(=O)c1cc(O)c(O)c(O)c1` [propyl gallate], the “mean adult lifespan of treated plate” value ([1]; 20 µM) is reported as 26.6 ± 1.5, the “mean adult lifespan of treated plate” value ([1]; 100 µM) is reported as 25 ± 1.5 and the “mean adult lifespan of treated plate” value ([1]; 200 µM) is reported as 27.2 ± 1.1. For the same compound, the “mean adult lifespan of treated plate” value ([1]; 400 µM) was 25.2 ± 1.4, the “mean adult lifespan of treated plate” value ([1]; 4000 µM) was 18 ± 1.1 and the “mean adult lifespan of treated plate” value ([2]; 20 µM) was 33.5 ± 1.6. For the same compound, the “mean adult lifespan of treated plate” value ([2]; 100 µM) was 35 ± 1.6, the “mean adult lifespan of treated plate” value ([2]; 200 µM) was 33.9 ± 1.3 and the “mean adult lifespan of treated plate” value ([2]; 400 µM) was 35.1 ± 1.4. For the same compound, the “mean adult lifespan of treated plate” value ([2]; 4000 µM) was 21.9 ± 1.4, the “mean adult lifespan of treated plate” value ([3]; 20 µM) was 23.8 ± 1.1 and the “mean adult lifespan of treated plate” value ([3]; 100 µM) was 26 ± 1.4. The “mean adult lifespan of treated plate” value ([3]; 200 µM) was 22.8 ± 1.1, the “mean adult lifespan of treated plate” value ([3]; 400 µM) was 24.7 ± 1.2 and the “mean adult lifespan of treated plate” value ([3]; 4000 µM) was 19.5 ± 0.94. For the same compound, the “mean adult lifespan of treated cohort” value [4] was 24.8 ± 0.89, the “mean adult lifespan of treated cohort” value [5] was 33.4 ± 1 and the “mean adult lifespan of treated cohort” value [6] was 24.5 ± 0.75. The “mean adult lifespan of treated cohort” value [7] was 21.5 ± 0.74, the “mean adult lifespan of treated cohort” value [8] was 18.3 ± 0.57 and the “mean adult lifespan of treated cohort” value [9] was 19 ± 0.4. It also gave a Kaplan-Meier median lifespan ([10]; 20 µM) of 26.4 ± 2.5, a Kaplan-Meier median lifespan ([10]; 100 µM) of 26.6 ± 2.9 and a Kaplan-Meier median lifespan ([10]; 200 µM) of 28.3 ± 0.58. For the same compound, the Kaplan-Meier median lifespan ([10]; 400 µM) was 26.6 ± 2.4, the Kaplan-Meier median lifespan ([10]; 4000 µM) was 17.6 ± 4.5 and the Kaplan-Meier median lifespan ([11]; 20 µM) was 35.4 ± 5.3. The Kaplan-Meier median lifespan ([11]; 100 µM) was 36.8 ± 3.5, the Kaplan-Meier median lifespan ([11]; 200 µM) was 35 and the Kaplan-Meier median lifespan ([11]; 400 µM) was 35.5 ± 3.6. It also gave a Kaplan-Meier median lifespan ([11]; 4000 µM) of 22.2 ± 6.4, a Kaplan-Meier median lifespan ([12]; 20 µM) of 24.6 ± 4.2 and a Kaplan-Meier median lifespan ([12]; 100 µM) of 27.3 ± 4.3. It also gave a Kaplan-Meier median lifespan ([12]; 200 µM) of 21, a Kaplan-Meier median lifespan ([12]; 400 µM) of 24.1 ± 4.8 and a Kaplan-Meier median lifespan ([12]; 4000 µM) of 19.4 ± 2.1. The Kaplan-Meier median lifespan [13] was 24.7 ± 2, the Kaplan-Meier median lifespan [14] was 35.5 ± 3 and the Kaplan-Meier median lifespan [15] was 24.7 ± 4. For the same compound, the Kaplan-Meier median lifespan [16] was 22.3 ± 2, the Kaplan-Meier median lifespan [17] was 18.3 ± 3.9 and the Kaplan-Meier median lifespan [18] was 18.3 ± 0.82.
In the case of `Oc1ccc(/C=C/c2cc(O)cc(O)c2)cc1` [resveratrol], the “mean adult lifespan of treated plate” value ([1]; 10 µM) is reported as 26.1 ± 1.4, the “mean adult lifespan of treated plate” value ([1]; 50 µM) is reported as 26.9 ± 1.2 and the “mean adult lifespan of treated plate” value ([1]; 200 µM) is reported as 26.9 ± 1.6. The “mean adult lifespan of treated plate” value ([1]; 1000 µM) was 27.6 ± 1.3, the “mean adult lifespan of treated plate” value ([2]; 10 µM) was 35.9 ± 1.3 and the “mean adult lifespan of treated plate” value ([2]; 50 µM) was 33 ± 1.3. The “mean adult lifespan of treated plate” value ([2]; 200 µM) was 35.5 ± 1.5, the “mean adult lifespan of treated plate” value ([2]; 1000 µM) was 34.7 ± 1.3 and the “mean adult lifespan of treated plate” value ([3]; 10 µM) was 25.9 ± 1.5. For the same compound, the “mean adult lifespan of treated plate” value ([3]; 50 µM) was 25.7 ± 1.1, the “mean adult lifespan of treated plate” value ([3]; 200 µM) was 22.9 ± 1.1 and the “mean adult lifespan of treated plate” value ([3]; 1000 µM) was 23.6 ± 1. For the same compound, the “mean adult lifespan of treated cohort” value [4] was 24.6 ± 0.91, the “mean adult lifespan of treated cohort” value [5] was 33.5 ± 1 and the “mean adult lifespan of treated cohort” value [6] was 25.5 ± 0.79. The “mean adult lifespan of treated cohort” value [7] was 22.9 ± 0.69, the “mean adult lifespan of treated cohort” value [8] was 18.3 ± 0.59 and the “mean adult lifespan of treated cohort” value [9] was 19.2 ± 0.46. For the same compound, the Kaplan-Meier median lifespan ([10]; 10 µM) was 26.1 ± 1.4, the Kaplan-Meier median lifespan ([10]; 50 µM) was 27.8 ± 2.7 and the Kaplan-Meier median lifespan ([10]; 200 µM) was 26.3 ± 1.8. It also gave a Kaplan-Meier median lifespan ([10]; 1000 µM) of 28.1 ± 2.2, a Kaplan-Meier median lifespan ([11]; 10 µM) of 36.8 ± 3.5 and a Kaplan-Meier median lifespan ([11]; 50 µM) of 36.2 ± 3.3. It also gave a Kaplan-Meier median lifespan ([11]; 200 µM) of 36.9 ± 3, a Kaplan-Meier median lifespan ([11]; 1000 µM) of 35.6 ± 3.6 and a Kaplan-Meier median lifespan ([12]; 10 µM) of 25.7 ± 4.7. For the same compound, the Kaplan-Meier median lifespan ([12]; 50 µM) was 25.7 ± 4.7, the Kaplan-Meier median lifespan ([12]; 200 µM) was 23.2 ± 3.4 and the Kaplan-Meier median lifespan ([12]; 1000 µM) was 22.6 ± 2.6. For the same compound, the Kaplan-Meier median lifespan [13] was 24.2 ± 1.5, the Kaplan-Meier median lifespan [14] was 35.8 ± 3.4 and the Kaplan-Meier median lifespan [15] was 25.5 ± 1.6. It also gave a Kaplan-Meier median lifespan [16] of 24.2 ± 1.7, a Kaplan-Meier median lifespan [17] of 18.3 ± 1.5 and a Kaplan-Meier median lifespan [18] of 19.2 ± 1.2.
